From ChEMBL document CHEMBL1137959, “Two new bacterial DNA primase inhibitors from the plant Polygonum cuspidatum” (Bioorg Med Chem Lett, 2004)

Tests used:
[1] = target: Nucleic Acid; assay: Inhibitory activity against bacterial DNA primase in fluorescent intercalator dye displacement assay (FID); type: nucleic-acid assay, Escherichia coli
[2] = target: Nucleic Acid; assay: Inhibitory activity against bacterial DNA primase; type: nucleic-acid assay, Escherichia coli

| Compound | IC50 [1] | IC50 [2] |
| --- | --- | --- |
| O=C(O[C@@H]1[C@@H](Oc2cc(O)cc(/C=C/c3ccc(O)cc3)c2)O[C@@H](CO)[C@@H](O)[C@@H]1O)c1cc(O)c(O)c(O)c1 | 4 µM | 4 µM |
| O=C(OC[C@@H]1O[C@H](Oc2cc(O)cc(/C=C/c3ccc(O)cc3)c2)[C@@H](O)[C@@H](O)[C@@H]1O)c1cc(O)c(O)c(O)c1 | – | 5 µM |
